{"source": "patent US20080255041A1", "about": "“Treatment of annulus fibrosis defects” (EBI, L.P., priority 2007, published 2008)", "test_system": "annulus fibrosis of the defective disc", "assay": "Injection of the composition into the annulus fibrosis of a patient with degenerative disc disease", "assay_type": "in vivo, human", "details": "patient with transverse annulus fibrosis tear between fifth lumbar and sacrum; F2A4-K—NS in hyaluronic acid carrier injected by syringe", "source_text": "A syringe containing the synthetic molecule F2A4-K—NS and a hyaluronic acid carrier is used to inject the composition into the annulus fibrosis of the defective disc. […] In the above example, collagen, heparin sulfate or propylene glycol is substituted for hyaluronic acid, to form gel carriers, with substantially similar results.", "data": [{"substance": "H—YRSRKYSSWYVALKRK(H—YRSKYSSWYVALKR)-Ahx-Ahx-Ahx-RKRLDRIAR—NH2 [F2A4-K—NS]", "values": [{"measurement": "angiogenesis at the site of the annulus fibrosis defect", "result": "promotes angiogenesis"}, {"measurement": "degeneration of the disc / closure of the annulus fibrosis tear", "result": "prevents further degeneration of the disc"}]}]}
